Experimental data: EPA's ToxValDB 9.5 (doi:10.2903/j.efsa.2010.1554)
≈ marks a conversion by molar mass, not a printed value.

What was measured:
Colinus virginianus = details: acute, oral, mortality
Apis mellifera = details: acute; duration: 48 hours; dermal; mortality
Daphnia magna = details: chronic/long-term; duration: 21 days; reproduction
Canidae = details: chronic; duration: 1 years; oral; Dog Other; organ weight
Rattus norvegicus = details: for NOAEL: reproduction developmental
Anas platyrhynchos = details: for LD50: oral, mortality

Compound `COc1cc(OC)nc(NC(=O)NS(=O)(=O)c2c(-c3nnn(C)n3)cnn2C)n1` [Azimsulfuron] has an LC50 (Oncorhynchus mykiss; acute, duration: 96 hours, mortality) of 154 µg/mL (≈ 363 µM), an NOEC (Oncorhynchus mykiss; chronic/long-term, duration: 90 days, time to hatch) of 6.3 mg/L and an LD50 (Colinus virginianus; diet) of over 3150 mg/kg-day. For the same compound, the LD50 (Colinus virginianus) was over 2250 mg/kg-day, the LD50 (Apis mellifera) was over 25 µg/piece and the NOEC (Daphnia magna) was 5.4 mg/L. The NOAEL (Canidae) was 17.9 mg/kg-day, the LC50 (Tagia sp.; acute, duration: 14 days, mortality) was over 1000 mg/kg and the NOEC (Tagia sp.; chronic/long-term, duration: 56 days, reproduction) was 12.5 mg/kg. The LD50 (Rattus norvegicus; acute, oral, mortality) was over 5000 mg/kg-day, the NOAEL (Rattus norvegicus; organ weight) was 9.6 mg/kg-day and the NOAEL (Rattus norvegicus; reproduction) was 76.6 mg/kg-day. The LD50 (Anas platyrhynchos; acute, unspecified) was over 2250 mg/kg-day, the NOEL (Anas platyrhynchos; reproductive) was 172 mg/kg-day and the LD50 (Anas platyrhynchos; short-term, feed) was over 2040 mg/kg-day.
